What was measured:
[1] = C57BL/6NTac-TgN(APOB100) transgenic mice (Example 47): liver enzyme, cholesterol, LDL-cholesterol and triglyceride levels; assay type: in vivo, mouse; conditions: C57BL/6NTac-TgN(APOB100) mice, 25 mg/kg
[2] = Transgenic mice dosing study (Example 52): serum total, LDL- and HDL-cholesterol; assay type: in vivo, mouse; conditions: serum
Protocol: A long-term study of inhibition of human apolipoprotein B by ISIS 301012 in C57BL/6NTac-TgN(APOB100) mice (Taconic, Germantown, N.Y.) was conducted for a 3 month period. Mice were dosed intraperitoneally twice a week with 10 or 25 mg/kg ISIS 301012 (SEQ ID No: 247) for 12 weeks. Saline-injected animals served as controls. Each treatment group comprised 4 animals.
Results are presented as mg/dL in serum and represent the average of 4 animals. Results from the saline control animals are also shown.

[3] = tested on: human apolipoprotein B protein; test: Transgenic mice (Example 47): serum human apolipoprotein B protein by ELISA; assay type: in vivo, human transgene in mouse; conditions: 25 mg/kg, relative to saline-treated animals
Protocol: Serum samples were also collected at 2, 4, 6 and 8 weeks and were evaluated for human apolipoprotein B expression by using a human apolipoprotein B specific ELISA kit (ALerCHEK Inc., Portland, Me.). […] Treatment with ISIS 301012 reduced serum human apolipoprotein B protein by 70, 87, 81 and 41% at 2, 4, 6 and 8 weeks, respectively, relative to saline-treated control animals. Serum from transgenic mice was also subjected to immunoblot analysis using both human and mouse specific apolipoprotein B antibodies (US Biologicals, Swampscott, Mass. and Santa Cruz Biotechnology, Inc., Santa Cruz, Calif., respectively).

[4] = 10 mg/kg i.p. twice a week, 2 weeks
[5] = 10 mg/kg i.p. twice a week, 4 weeks
[6] = 10 mg/kg i.p. twice a week, 6 weeks
[7] = 10 mg/kg i.p. twice a week, 8 weeks
[8] = 10 mg/kg i.p. twice a week, Start
[9] = 25 mg/kg i.p. twice a week, 2 weeks
[10] = 25 mg/kg i.p. twice a week, 4 weeks
[11] = 25 mg/kg i.p. twice a week, 6 weeks
[12] = 25 mg/kg i.p. twice a week, 8 weeks
[13] = 25 mg/kg i.p. twice a week, Start

ISIS 301012: SEQ ID NO: 247, antisense oligonucleotide targeted to human apolipoprotein B (antisense GCCTCAGTCTGCTTCGCACC; chemistry not given here)
LDL-cholesterol levels ([1]; 2 weeks of treatment): 22 mg/dL | LDL-cholesterol levels ([1]; 4 weeks of treatment): 17 mg/dL | HDL-cholesterol [2, 4]: 69 mg/dL | LDL-cholesterol [2, 4]: 20 mg/dL | Total cholesterol [2, 4]: 97 mg/dL | HDL-cholesterol [2, 5]: 78 mg/dL | LDL-cholesterol [2, 5]: 23 mg/dL | Total cholesterol [2, 5]: 111 mg/dL | HDL-cholesterol [2, 6]: 72 mg/dL | LDL-cholesterol [2, 6]: 37 mg/dL | Total cholesterol [2, 6]: 120 mg/dL | HDL-cholesterol [2, 7]: 79 mg/dL | LDL-cholesterol [2, 7]: 33 mg/dL | Total cholesterol [2, 7]: 122 mg/dL | HDL-cholesterol [2, 8]: 70 mg/dL | LDL-cholesterol [2, 8]: 35 mg/dL | Total cholesterol [2, 8]: 115 mg/dL | HDL-cholesterol [2, 9]: 73 mg/dL | LDL-cholesterol [2, 9]: 19 mg/dL | Total cholesterol [2, 9]: 101 mg/dL | HDL-cholesterol [2, 10]: 76 mg/dL | LDL-cholesterol [2, 10]: 19 mg/dL | Total cholesterol [2, 10]: 107 mg/dL | HDL-cholesterol [2, 11]: 80 mg/dL | LDL-cholesterol [2, 11]: 37 mg/dL | Total cholesterol [2, 11]: 124 mg/dL | HDL-cholesterol [2, 12]: 91 mg/dL | LDL-cholesterol [2, 12]: 44 mg/dL | Total cholesterol [2, 12]: 147 mg/dL | HDL-cholesterol [2, 13]: 64 mg/dL | LDL-cholesterol [2, 13]: 33 mg/dL | Total cholesterol [2, 13]: 107 mg/dL | reduction of serum human apolipoprotein B protein (ELISA) ([3]; 2 weeks): 70% | reduction of serum human apolipoprotein B protein (ELISA) ([3]; 4 weeks): 87% | reduction of serum human apolipoprotein B protein (ELISA) ([3]; 6 weeks): 81% | reduction of serum human apolipoprotein B protein (ELISA) ([3]; 8 weeks): 41%

Reference: patent US7803930B2, “Antisense modulation of apolipoprotein B-expression” (Isis Pharmaceuticals, Inc., priority 2002, dated 2010)
